Source: ChEMBL document CHEMBL6083255, “Synthesis and biological evaluation of novel isobenzofuran-1(3H)-one derivatives as antidepressant agents” (2024)
The source made the active and inactive calls. No cut-off for these calls is given here.

Tests used:
CHO-K1 [1] = experiment: Agonist activity at mu opioid receptor in CHO-K1 cells assessed as increase in intracellular fluorescence intensity at 30 uM incubated for 90 sec by microplate reader assay; format: cell-based; details: Cricetulus griseus, filed as agonist
[2] = biological target: Sodium-dependent serotonin transporter (Rattus norvegicus) (UniProt P31652); experiment: Inhibition of SERT in Wistar rat RBL-2H3 cells assessed as decrease in fluorescence intensity at 10 uM preincubated for 2 hrs followed by APP+ addition and measured after 1 hr by fluorescence based assay; format: cell-based; details: time 3.0 hrs
Chain of Sodium-dependent serotonin transporter (Rattus norvegicus) (P31652 whole entry): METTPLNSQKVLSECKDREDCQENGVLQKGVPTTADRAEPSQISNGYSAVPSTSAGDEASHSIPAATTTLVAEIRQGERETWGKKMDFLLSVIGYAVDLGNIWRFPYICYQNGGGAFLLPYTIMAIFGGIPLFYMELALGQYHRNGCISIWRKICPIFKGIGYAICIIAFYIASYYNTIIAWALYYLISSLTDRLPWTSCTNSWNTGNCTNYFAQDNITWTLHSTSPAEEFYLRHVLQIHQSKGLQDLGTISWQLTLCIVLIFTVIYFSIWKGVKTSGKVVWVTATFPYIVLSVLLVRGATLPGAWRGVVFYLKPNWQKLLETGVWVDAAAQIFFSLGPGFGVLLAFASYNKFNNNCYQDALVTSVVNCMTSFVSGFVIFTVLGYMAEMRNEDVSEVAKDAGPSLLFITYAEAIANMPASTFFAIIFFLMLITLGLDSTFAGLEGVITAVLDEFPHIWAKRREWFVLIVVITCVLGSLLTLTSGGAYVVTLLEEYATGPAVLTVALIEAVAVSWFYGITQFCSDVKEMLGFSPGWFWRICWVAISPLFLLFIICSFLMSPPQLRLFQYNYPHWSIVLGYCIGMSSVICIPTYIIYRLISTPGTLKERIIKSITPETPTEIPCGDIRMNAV

RBL-2H3 [3] = experiment: Cytotoxicity against Wistar rat RBL-2H3 cells assessed as cell viability over 20 uM by MTT assay; format: functional, cell-based
RBL-2H3 [4] = experiment: Induction of cell death in Wistar rat RBL-2H3 cells assessed as cell viability over 20 uM by MTT assay; format: functional, cell-based
RBL-2H3 [5] = experiment: Cytotoxicity against Wistar rat RBL-2H3 cells assessed as cell viability at 125 uM incubated for 24 hrs by MTT assay; format: functional; details: read-out: Activity
RBL-2H3 [6] = experiment: Cytotoxicity against Wistar rat RBL-2H3 cells assessed as cell viability at 25 uM incubated for 24 hrs by MTT assay; format: functional; details: read-out: Activity
CHO-K1 [7] = experiment: Agonist activity at mu opioid receptor in CHO-K1 cells assessed as increase in intracellular fluorescence intensity at 50 uM incubated for 90 sec by microplate reader assay; format: cell-based; details: Cricetulus griseus
CHO-K1 [8] = experiment: Antagonist activity at mu opioid receptor in CHO-K1 cells assessed as intracellular fluorescence intensity at 50 uM incubated for 2 mins by microplate reader assay; format: cell-based; details: Cricetulus griseus
RBL-2H3 [9] = experiment: Cytotoxicity against Wistar rat RBL-2H3 cells assessed as cell viability at 5 uM incubated for 24 hrs by MTT assay; format: functional; details: read-out: Activity
CHO-K1 [10] = experiment: Agonist activity at CCK-B receptor in CHO-K1 cells incubated for 90 sec by microplate reader assay; format: cell-based; details: Cricetulus griseus
RBL-2H3 [11] = experiment: Cytotoxicity against Wistar rat RBL-2H3 cells assessed as cell viability at 1 uM incubated for 24 hrs by MTT assay; format: functional; details: read-out: Activity
CHO-K1 [12] = experiment: Antagonist activity at CCK-B receptor in CHO-K1 cells at 50 uM incubated for 90 sec by microplate reader assay; format: cell-based; details: Cricetulus griseus
Mus musculus [13] = experiment: Antidepressant activity in chronic restraint stress induced C57BL/6J mouse model assessed as increase in 5-HT level in prefrontal cortex at 10 mg/kg, po administered as prophylactic dose by ELISA; format: functional, organism-based
Mus musculus [14] = experiment: Antidepressant activity in chronic restraint stress induced C57BL/6J mouse model assessed as increase in time in open arm at 10 mg/kg, po administered as prophylactic dose and measured on day 31 by elevated plus maze test; format: functional, organism-based; details: time 31.0 day
Mus musculus [15] = experiment: Antidepressant activity in chronic restraint stress induced C57BL/6J mouse model assessed as increase in latency entries into center zone at 10 mg/kg, po administered as prophylactic dose and measured on day 29 by open field test; format: functional, organism-based; details: time 29.0 day
Mus musculus [16] = experiment: Antidepressant activity in chronic restraint stress induced C57BL/6J mouse model assessed as increase in entries in open arm at 10 to 50 mg/kg, po pretreated with CRS for 14 days followed by compound addition on day 15 and measured after 31 days by elevated plus maze test; format: functional, organism-based; details: dose 10-50 mg/kg, time 31.0 day
Mus musculus [17] = experiment: Antidepressant activity in chronic restraint stress induced C57BL/6J mouse model assessed as increase in 5-HT level in prefrontal cortex at 10 to 50 mg/kg, po pretreated with CRS for 14 days followed by compound addition on day 15 by ELISA; format: functional, organism-based; details: dose 10-50 mg/kg
Mus musculus [18] = experiment: Antidepressant activity in chronic restraint stress induced C57BL/6J mouse model assessed as increase in distance in open arm at 10 mg/kg, po administered as prophylactic dose and measured on day 31 by elevated plus maze test; format: functional, organism-based; details: time 31.0 day
Mus musculus [19] = experiment: Antidepressant activity in chronic restraint stress induced C57BL/6J mouse model assessed as reduction in immobility time at 10 to 50 mg/kg, po pretreated with CRS for 14 days followed by compound addition on day 15 and measured after 30 days by force swimming test; format: functional, organism-based; details: dose 10-50 mg/kg, time 30.0 day
Mus musculus [20] = experiment: Antidepressant activity in chronic restraint stress induced C57BL/6J mouse model assessed as increase in PSD-95 expression level at 10 mg/kg, po administered as prophylactic dose by Western blotting assay; format: functional, organism-based
Mus musculus [21] = experiment: Antidepressant activity in C57BL/6J mouse assessed as reduction in CRS induced body weight loss at 10 to 50 mg/kg, po pretreated with CRS for 14 days followed by compound addition on day 15 and measured upto 28 days; format: functional, organism-based; details: dose 10-50 mg/kg, time <= 28.0 day
Mus musculus [22] = experiment: Antidepressant activity in chronic restraint stress induced C57BL/6J mouse model assessed as reduction in immobility time at 10 mg/kg, po administered as prophylactic dose and measured on day 30 by force swimming test; format: functional, organism-based; details: time 30.0 day
Mus musculus [23] = experiment: Antidepressant activity in chronic restraint stress induced C57BL/6J mouse model assessed as increase in distance in open arm at 10 to 50 mg/kg, po pretreated with CRS for 14 days followed by compound addition on day 15 and measured after 31 days by elevated plus maze test; format: functional, organism-based; details: dose 10-50 mg/kg, time 31.0 day
Mus musculus [24] = experiment: Antidepressant activity in chronic restraint stress induced C57BL/6J mouse model assessed as increase in TrkB expression level at 10 mg/kg, po administered as prophylactic dose by Western blotting assay; format: functional, organism-based
Mus musculus [25] = experiment: Antidepressant activity in chronic restraint stress induced C57BL/6J mouse model assessed as increase the time in center zone at 10 to 50 mg/kg, po pretreated with CRS for 14 days followed by compound addition on day 15 and measured after 29 days by open field test; format: functional, organism-based; details: dose 10-50 mg/kg, time 29.0 day
Mus musculus [26] = experiment: Antidepressant activity in chronic restraint stress induced C57BL/6J mouse model assessed as increase in time in open arm at 10 to 50 mg/kg, po pretreated with CRS for 14 days followed by compound addition on day 15 and measured after 31 days by elevated plus maze test; format: functional, organism-based; details: dose 10-50 mg/kg, time 31.0 day
Mus musculus [27] = experiment: Antidepressant activity in chronic restraint stress induced C57BL/6J mouse model assessed as rescue of normal neurons at 10 mg/kg, po administered as prophylactic dose by Nissl staining based optical microscopic assay; format: functional, organism-based
Mus musculus [28] = experiment: Antidepressant activity in chronic restraint stress induced C57BL/6J mouse model assessed as increase the time in center zone at 10 mg/kg, po administered as prophylactic dose and measured on day 29 by open field test; format: functional, organism-based; details: time 29.0 day
Mus musculus [29] = experiment: Antidepressant activity in chronic restraint stress induced C57BL/6J mouse model assessed as rescue of normal neurons at 10 to 50 mg/kg, po pretreated with CRS for 14 days followed by compound addition on day 15 by Nissl staining based optical microscopic assay; format: functional, organism-based; details: dose 10-50 mg/kg
Mus musculus [30] = experiment: Antidepressant activity in chronic restraint stress induced C57BL/6J mouse model assessed as increase in hippocampus TPH2 protein expression at 10 mg/kg, po administered as prophylactic dose by Western blotting analysis; format: functional, organism-based
Mus musculus [31] = experiment: Antidepressant activity in chronic restraint stress induced C57BL/6J mouse model assessed as increase in entries in open arm at 10 mg/kg, po administered as prophylactic dose and measured on day 31 by elevated plus maze test; format: functional, organism-based; details: time 31.0 day
Mus musculus [32] = experiment: Antidepressant activity in C57BL/6J mouse assessed as reduction in CRS induced body weight loss at 10 mg/kg, po administered as prophylactic dose and measured upto 28 days; format: functional, organism-based; details: time <= 28.0 day
Mus musculus [33] = experiment: Antidepressant activity in chronic restraint stress induced C57BL/6J mouse model assessed as increase in latency entries into center zone at 10 to 50 mg/kg, po pretreated with CRS for 14 days followed by compound addition on day 15 and measured after 29 days by open field test; format: functional, organism-based; details: dose 10-50 mg/kg, time 29.0 day
Mus musculus [34] = experiment: Antidepressant activity in chronic restraint stress induced C57BL/6J mouse model assessed as increase in total distance in center zone at 10 to 50 mg/kg, po pretreated with CRS for 14 days followed by compound addition on day 15 and measured after 29 days by open field test; format: functional, organism-based; details: dose 10-50 mg/kg, time 29.0 day
Mus musculus [35] = experiment: Antidepressant activity in chronic restraint stress induced C57BL/6J mouse model assessed as increase in Bcl2/Bax level at 10 mg/kg, po administered as prophylactic dose by Western blotting assay; format: functional, organism-based
Mus musculus [36] = experiment: Antidepressant activity in chronic restraint stress induced C57BL/6J mouse model assessed as increase in total distance in center zone at 10 mg/kg, po administered as prophylactic dose and measured on day 29 by open field test; format: functional, organism-based; details: time 29.0 day
Mus musculus [37] = experiment: Antidepressant activity in chronic restraint stress induced C57BL/6J mouse model assessed as increase in spinophilin positive cells in cortex at 10 mg/kg, po administered as prophylactic dose by immunohistochemistry assay; format: functional, organism-based
Mus musculus [38] = experiment: Antidepressant activity in chronic restraint stress induced C57BL/6J mouse model assessed as increase in BDNF expression level at 10 mg/kg, po administered as prophylactic dose by Western blotting assay; format: functional, organism-based
Mus musculus [39] = experiment: Antidepressant activity in chronic restraint stress induced C57BL/6J mouse model assessed as increase in spinophilin positive cells in cortex at 10 to 50 mg/kg, po pretreated with CRS for 14 days followed by compound addition on day 15 by immunohistochemistry assay; format: functional, organism-based; details: dose 10-50 mg/kg

C[C@@H](NC(=O)[C@@H](N)Cc1ccc(O)cc1)C(=O)NCC(=O)N(C)[C@@H](Cc1ccccc1)C(=O)NCCO
Activity (CHO-K1 [1]): Active

CNCCC(Oc1ccc(C(F)(F)F)cc1)c1ccccc1 (stereo not drawn)
Activity [2]: Active | Activity (RBL-2H3 [3]): Active | Activity (RBL-2H3 [4]): Active

O=C1OC(CN2CCCCC2)(c2ccc(Cl)cc2)c2ccccc21 (stereo not drawn)
viability at 125 µM (RBL-2H3 [5]): 125% | viability at 25 µM (RBL-2H3 [6]): 107% | Activity [2]: Active; Activity Stronger Than Fluoxetine | Activity (CHO-K1 [7]): inactive | Activity (CHO-K1 [8]): inactive | viability at 5 µM (RBL-2H3 [9]): 98.1% | Activity (CHO-K1 [10]): inactive | viability at 1 µM (RBL-2H3 [11]): 97.5% | Activity (CHO-K1 [12]): inactive

CCN(CC)CC1(c2ccc(Cl)cc2)OC(=O)c2ccccc21 (stereo not drawn)
viability at 125 µM (RBL-2H3 [5]): 132% | Activity (Mus musculus [13]): Active | Activity (Mus musculus [14]): Active | Activity (Mus musculus [15]): Active | Activity (Mus musculus [16]): Active | Activity (Mus musculus [17]): Active | viability at 25 µM (RBL-2H3 [6]): 117% | Activity (Mus musculus [18]): Active | Activity (Mus musculus [19]): Active | Activity [2]: Active; Activity Stronger Than Fluoxetine | Activity (Mus musculus [20]): Active | Activity (Mus musculus [21]): Active | Activity (Mus musculus [22]): Active | Activity (Mus musculus [23]): Active | Activity (CHO-K1 [7]): inactive | Activity (Mus musculus [24]): Active | Activity (CHO-K1 [8]): inactive | Activity (Mus musculus [25]): Active | viability at 5 µM (RBL-2H3 [9]): 107% | Activity (CHO-K1 [10]): inactive | Activity (Mus musculus [26]): Active | viability at 1 µM (RBL-2H3 [11]): 105% | Activity (Mus musculus [27]): Active | Activity (Mus musculus [28]): Active | Activity (Mus musculus [29]): Active | Activity (Mus musculus [30]): Active | Activity (Mus musculus [31]): Active | Activity (Mus musculus [32]): Active | Activity (Mus musculus [33]): Active | Activity (Mus musculus [34]): Active | Activity (Mus musculus [35]): Active | Activity (Mus musculus [36]): Active | Activity (CHO-K1 [12]): inactive | Activity (Mus musculus [37]): Active | Activity (Mus musculus [38]): Active | Activity (Mus musculus [39]): Active

O=C1OC(CN2CCCCCC2)(c2ccccc2)c2ccccc21 (stereo not drawn)
viability at 125 µM (RBL-2H3 [5]): 100% | viability at 25 µM (RBL-2H3 [6]): 95.5% | Activity [2]: Active; Activity Stronger Than Fluoxetine | Activity (CHO-K1 [7]): inactive | Activity (CHO-K1 [8]): inactive | viability at 5 µM (RBL-2H3 [9]): 101% | Activity (CHO-K1 [10]): inactive | viability at 1 µM (RBL-2H3 [11]): 97.8% | Activity (CHO-K1 [12]): inactive
